Measured values reported in US11300570B2, “Therapeutic and diagnostic methods for cancer” (Genentech, Inc., priority 2016, dated 2022).

Test system: locally advanced or metastatic NSCLC (PD-L1-selected patients)
Test: BIRCH and FIR Phase II single-arm trials of atezolizumab monotherapy in PD-L1-selected NSCLC, efficacy by tTMB
Format: in vivo, human
Settings: for Median OS / Median PFS: 1L BIRCH/FIR; for ORR / Odds Ratio for Response / OS HR (95% CI) / PFS HR (95% CI): BIRCH and FIR 2L+; for Odds Ratio for Response / OS HR (95% CI) / PFS HR (95% CI): TMB-high vs TMB-low; for OS HR (95% CI) / PFS HR (95% CI): unadjusted, unstratified
Method: The correlation between the level of somatic mutations detected in a tumor tissue sample (e.g., mutation load, also referred to as tissue tumor mutational burden (tTMB)) and PD-L1 expression and their independent contribution to treatment with PD-L1 axis binding antagonists in non-small cell lung cancer (NSCLC) tumors was evaluated.
Pre-treatment tumor specimens from 465 patients with 2 L+ NSCLC who were enrolled in one of the three Phase II clinical trials (BIRCH, FIR, and POPLAR; Table 4 and 5), in which atezolizumab was administered as a monotherapy, were evaluated for tissue tumor mutational burden (tTMB). Tumor specimens from 1 L NSCLC patients were also evaluated in the BIRCH and FIR studies.
The efficacy analyses of the BIRCH population excluded these two untreated patients. Patients were eligible for enrollment in the BIRCH study if they had locally advanced or metastatic (e.g., stage IIIB, stage IV, or recurrent) NSCLC; a PD-L1-positive tumor status determined by an immunohistochemistry (IHC) assay based on PD-L1 expression in tumor infiltrating immune cells (IC) and/or tumor cells (TC); measurable disease, as defined by RECIST v1.1; and an Eastern Cooperative Oncology Group (ECOG) performance status of 0 or 1. Patients received atezolizumab at a dose of 1200 mg intravenously every three weeks for as long as patients were experiencing clinical benefit, i.e., in the absence of unacceptable toxicity or symptomatic deterioration attributed to disease progression.
The FIR (Clinical Trial ID No.: NCT01846416) patient population evaluated for tTMB consisted of 33 patients. Patients were eligible for enrollment in the FIR study if they had stage IIIB (e.g., not eligible for treatment by definitive chemoradiotherapy), stage IV, or recurrent NSCLC; a PD-L1-positive status as determined by an IHC assay; an ECOG performance status of 0 or 1; a life expectancy 12 weeks; measurable disease, as defined by RECIST v1.1; and adequate hematologic and end organ function. Patients received an intravenous dose of 1200 mg atezolizumab on Day 1 of each 21-day cycle until disease progression.
Data from the single-arm, PD-L1-selected trials BIRCH and FIR were combined and analyzed to examine the association between tTMB and clinical outcomes among PD-L1-selected patients. Data from the randomized, PD-L1-unselected trial, POPLAR, were analyzed separately and treatment effects between the atezolizumab- and docetaxel-treatment arms were compared.
To identify somatic mutations, tumor samples (e.g., archival tumor samples) were processed as described in Frampton et al. Nat. Biotechnol. 31:1023-31, 2013. Sequencing libraries were constructed to sequence and analyze samples. In addition to standard mutation processing, a mutation load estimation algorithm was applied that, based on the number of somatic mutations and/or rearrangements detected in Table 1 or Table 2, respectively, extrapolates to the exome or the genome as a whole. For purposes of mutation load estimation, all coding short variant alterations, base substitutions, and indels detected in the genes listed in Table 1 and Table 2 were counted. Further, all coding alterations (base substitutions and indels), including synonymous alterations, with the exception of known oncogenic driver mutations, in the genes listed in Table 1 and Table 2 were counted. […]

[1] = BEP (evaluable for TMB) (n = 102)

Question: With atezolizumab as the substance, how does the “Median OS” value [1] read?
Answer: The value was 20.1 months.

Question: What about the “Median PFS” value [1] of the same substance?
Answer: The value was 7.0 months.

Question: And the “Median OS” value (ITT (n = 173))?
Answer: Its value is 20.1 months.

Question: And the “Median PFS” value (ITT (n = 173))?
Answer: Its value is 6.9 months.

Question: What about the “Median PFS” value (tTMB score <9 mut/Mb (n = 45)) of the same substance?
Answer: Its value is 4 months.

Question: What about the “Median OS” value (tTMB score <16 mut/Mb (n = 85)) of the same substance?
Answer: The value was 20.1 months.

Question: And the “Median PFS” value (tTMB score <16 mut/Mb (n = 85))?
Answer: Its value is 6 months.

Question: What about the “Median OS” value (tTMB score ≥9 mut/Mb (n = 57)) of the same substance?
Answer: Its value is 20.1 months.

Question: And the “Median PFS” value (tTMB score ≥9 mut/Mb (n = 57))?
Answer: Its value is 8.3 months.

Question: What about the “Median PFS” value (tTMB score ≥16 mut/Mb (n = 17)) of the same substance?
Answer: The value was 11.1 months.

Question: And the ORR (TMB-high (at or above 25% tTMB quantile cutoff))?
Answer: Its ORR is 22%.

Question: What about the ORR (TMB-high (at or above 50% (median) tTMB cutoff)) of the same substance?
Answer: The ORR was 25%.

Question: What about the ORR (TMB-high (at or above 75% tTMB quantile cutoff)) of the same substance?
Answer: The ORR was 29%.

Question: And the “Odds Ratio for Response” value (25% tTMB cutoff)?
Answer: Its value is 2.14.

Question: What about the “OS HR (95% CI)” value (25% tTMB cutoff) of the same substance?
Answer: The value was 0.92 (0.64, 1.30).

Question: What about the “PFS HR (95% CI)” value (25% tTMB cutoff) of the same substance?
Answer: The value was 0.79 (0.60, 1.00).

Question: What about the “Odds Ratio for Response” value (50% (median) tTMB cutoff) of the same substance?
Answer: Its value is 2.11.

Question: And the “OS HR (95% CI)” value (50% (median) tTMB cutoff)?
Answer: The value was 0.87 (0.65, 1.16).

Question: What about the “PFS HR (95% CI)” value (50% (median) tTMB cutoff) of the same substance?
Answer: Its value is 0.64 (0.50, 0.80).

Question: What about the “Odds Ratio for Response” value (75% tTMB cutoff) of the same substance?
Answer: Its value is 2.20.

Question: What about the “OS HR (95% CI)” value (75% tTMB cutoff) of the same substance?
Answer: The value was 0.70 (0.49, 1.00).

Question: What about the “PFS HR (95% CI)” value (75% tTMB cutoff) of the same substance?
Answer: The value was 0.5 (0.38, 0.67).

Question: What about the ORR (TMB-low (below 25% tTMB quantile cutoff)) of the same substance?
Answer: The ORR was 11%.

Question: What about the ORR (TMB-low (below 50% (median) tTMB cutoff)) of the same substance?
Answer: Its ORR is 14%.

Question: And the ORR (TMB-low (below 75% tTMB quantile cutoff))?
Answer: Its ORR is 16%.

Question: What about the “association of tissue TMB with efficacy” value (PD-L1-selected 2L+ patients with NSCLC, BIRCH and FIR) of the same substance?
Answer: Its value is “associated with improved efficacy”.

Question: What about the “association of tTMB with efficacy” value (all lines evaluated (1L and 2L+) in FIR and BIRCH) of the same substance?
Answer: Its value is “associated with improved efficacy”.
